In this assay the test system is P. falciparum 3D7 growth, pLDH absorbance. The assay can be described thus: blood-stage malaria parasite growth potency – strain 3D7, dose response (AID 2305).
Turning to `CCC(C)NC(=O)Nc1ccc(-c2cccc(-c3nc4c(C)cccc4[nH]3)c2)cc1` (stereo not drawn), the IC50 came to 190 nM. That is a sub-micromolar value.
Next, `COc1ccc(NC(=O)/C=C/c2ccc(Cl)c(Cl)c2)cc1N1CCN(C)CC1`: 980 nM; `CC(C)N(Cc1ccc(-c2ccc(C(F)(F)F)cc2)cc1)C(=O)Cn1c(CCc2cccc(F)c2F)cc(=O)c2ccc(CCCN3CCCCC3)cc21`: 740 nM.
Take `O=C(Nc1ccc(OC2CCN(Cc3ccccc3)C2)c(Cl)c1)c1cccs1` (stereo not drawn): the IC50 was found to be 390 nM.
In the case of `COc1cccc(C2CCN(CCN3CCC(CNC(=O)c4ccc(-c5ccc(C(F)(F)F)cc5)cc4)CC3)CC2)c1` it was 890 nM; in that of `Cc1cc(NC(=O)c2cccs2)ccc1OC1CCN(Cc2ccc(C#N)cc2)CC1`, 720 nM.
Next, `COc1cccc2c(NN=Cc3ccccc3[N+](=O)[O-])cc(C)nc12`: 420 nM; `CCn1c(C=Cc2cc(Br)ccc2O)nc2ccccc2c1=O`: 650 nM; `Cc1ccc(NC(=O)C2CCC2)cc1-c1ccc(C(=O)NCC2CC2)cc1`: 740 nM.
For the molecule `COc1ccc(/C=C/C(=O)Nc2ccc(-c3ccncc3)cc2)cc1CCCN(C)C`, the IC50 worked out at 750 nM. This IC50 and that of the molecule before are within 1.5-fold of each other.
Take `O=C(NC1CCN(CCN2CCC(c3cn(CCO)c4ccccc34)CC2)CC1)c1ccc(-c2ccc(C(F)(F)F)cc2)cc1`: the half-inhibitory concentration (IC50) was 740 nM.
In the case of `COc1cc2nccc(Nc3ccc(NC(=O)c4ccc(C)cc4)c(O)c3)c2cc1OC`, the IC50 was determined as 170 nM.
Next, `NCC(NC(=O)c1ccc(-c2c[nH]c3ncccc23)s1)c1ccccc1` (stereo not drawn): 550 nM; `Cc1ccc(Cl)cc1NC(=O)c1c(-c2ccccc2Cl)noc1C`: 190 nM.
Molecule `Brc1ccsc1-c1nc(NCCC(c2ccccc2)c2ccccc2)no1` registered an IC50 of 1080 nM.
Turning to `CC(=O)OCCN1C(=O)c2ccc3c4c(ccc(c24)C1=O)C(=O)N(CCOC(C)=O)C3=O`, the concentration for half-maximal inhibition (IC50) was 240 nM.
The molecule `FC(F)(F)COc1c(CCNCCCCNCCc2ccc3ccccc3c2OCC(F)(F)F)ccc2ccccc12` showed a 50% inhibitory concentration (IC50) of 350 nM.
`Cc1nc2ccc3ccc(CNc4ccc(C(=O)N[C@@H](CCC(=O)O)C(=O)O)c(F)c4)cc3c2c(=O)[nH]1` displayed a concentration for half-maximal inhibition (IC50) of 400 nM. The IC50 values of the last two molecules are within 1.5-fold of each other.
In the case of `CN1CCCN(Cc2ccc(-c3ccc(NS(=O)(=O)c4cccc5cccnc45)cc3)cc2)CC1` it was 690 nM; in that of `CCCN(c1ccc(O)c(CN2CCCCC2)c1)c1ccc([N+](=O)[O-])cn1`, 800 nM.
Next, `O=C(/C=C/c1cccc(OC(F)(F)F)c1)NCCCCCN1CCC(c2c[nH]c3ccccc23)CC1`: 960 nM.
In the case of `CC(Cc1ccc(OCCN2CCN(c3cccc(Cl)c3)CC2)cc1)NCC(O)c1cccc(Cl)c1` (stereo not drawn) it was 1210 nM; in that of `Cc1nc(N=C(N)N)nc2cc3c(cc12)CCC3`, 920 nM; in that of `C=CCN1C(=O)C(C(C)=O)=C(O)C1c1ccccc1` (stereo not drawn), 50 nM.
Regarding `CCN(CC)CCN(Cc1ccc(-c2ccc(Cl)s2)cc1)C(=O)Cn1c(CCc2cccc(F)c2F)nc(=O)c2ccccc21`, the 50% inhibitory concentration (IC50) stood at 1140 nM. This IC50 is about 23-fold higher than that of the molecule before.
In the case of `COc1ccc(-c2cc(Nc3nc(-c4cccc(Cl)c4)nc4ccccc34)ccn2)cc1` it was 730 nM; in that of `O=C(NC1CCN(Cc2ccccc2)CC1)c1ccc(-c2nc3cc4ccccc4cc3[nH]2)s1`, 600 nM.
In the case of `CN(C)Cc1cccc(-c2ccc3ccnc(N)c3c2)c1` it was 120 nM; in that of `COc1ccc(Cl)cc1NC(=O)C(C)Nc1ccc(-c2ccccc2)cc1` (stereo not drawn), 560 nM; in that of `Oc1ccc(CCCNc2nc(NCc3cccc4ccccc34)nc(N3CCCNCC3)n2)cc1`, 990 nM.
In the case of `CCOc1ccc(-c2nc3ccc(-c4nc5ccc(N6CCN(C)CC6)cc5[nH]4)cc3[nH]2)cc1` it was 110 nM; in that of `CCN(CC)CCOC(=O)C(OC)(c1ccccc1)c1ccccc1`, 1020 nM.
For `Cc1ccc(NC(=O)Nc2ccccc2)cc1-c1ccc(C(=O)Nc2ccncc2)cc1`, the half-inhibitory concentration (IC50) is 240 nM.
Next, `COc1cccc(Nc2c(C(N)=O)cnc3ccc(-c4ccc(S(C)=O)cc4)cc23)c1` (stereo not drawn): 190 nM; `Nc1nc(N)c2c(ccc3c2cnn3S(=O)(=O)N2CCCC2)n1`: 20 nM; `COc1cccc(CN2CCCC(OC(c3ccccc3)c3ccccc3)C2)c1O` (stereo not drawn): 930 nM.
Molecule `O=C(NC1CC1)c1cnc(N2CCC(COc3cccc(F)c3)CC2)c(Cl)c1` gave an IC50 of 1200 nM. This IC50 and that of the molecule before are within 1.5-fold of each other.
In the case of `Cc1[nH]c(C)c(-c2ccc(-c3ccccc3F)nc2)c(=O)c1Br` it was 400 nM; in that of `Cc1cc(F)ccc1Nc1nc(N(C)c2ccccc2)c2cccc(OCCO)c2n1`, 800 nM.
Take `COc1ccc(CCc2ccc(-c3c(C)[nH]c(C)c(Cl)c3=O)cc2)cc1OC`: the half-inhibitory concentration (IC50) worked out at 90 nM.
Next, `COc1ccccc1N1CCN(Cc2cc(C(C)C)c(C)cc2O)CC1`: 570 nM; `COc1cc(C=NNc2nc(Nc3ccccc3)nc(Nc3ccccc3)n2)ccc1OCc1ccccc1[N+](=O)[O-]`: 810 nM.
In the case of `Cc1nn(-c2cccc(Cl)c2)c2c1C(C(=O)c1ccc3c(c1)OCO3)CC(=O)N2` (stereo not drawn) it was 370 nM.
Turning to `CC(C)C[C@@H](C(=O)N[C@@H](CCCCNC(=O)OCc1ccccc1)C(=O)Nc1nccs1)[C@H](C)N(O)C=O`, the IC50 was found to be 190 nM. This IC50 is about 1.9-fold lower than that of the molecule before.
`COc1ccc2nc3cc(Cl)ccc3c(NCCO)c2c1` came in with an IC50 of 800 nM.
`Cc1cccc(NC(=O)c2cnc(N3CCN(c4ccncc4)CC3)c(Cl)c2)c1`: the IC50 worked out at 680 nM.
Next, `Cn1cncc1-c1ccc2ncnc(Nc3ccc(OCc4ccccc4)cc3)c2c1`: 1340 nM; `CCCCCCCCCCS(=O)(=O)N[C@H](COCc1cccc(Oc2ccccc2)c1)COP(=O)(O)OC`: 1020 nM.
In the case of `CCC(=O)N[C@@H]1CN[C@@H](C#Cc2cc3c(Nc4ccc(OCc5cccc(F)c5)c(Cl)c4)ncnc3s2)C1` it was 1120 nM; in that of `CN1CCN(Cc2cc3cc(NC(=O)/C=C/c4ccc(Cl)cc4)ccc3s2)CC1`, 770 nM.
The molecule `CNc1ccc(CNCc2ccc(-c3ccc(-c4nc5ccc(F)cc5[nH]4)cc3)cc2)cc1` registered a half-inhibitory concentration (IC50) of 210 nM.
In the case of `CCOc1cc(C(=O)Nc2cccnc2)ccc1-c1nc2cc(Cl)c(Cl)cc2[nH]1` it was 1010 nM; in that of `O=C(Nc1ccc(OC2CCN(Cc3ccc(F)cc3)CC2)c(Cl)c1)c1ccsc1`, 720 nM.
For `COC(=O)/C=C/c1ccc(CC(C)NCC(O)c2cccc(C(F)(F)F)c2)cc1` (stereo not drawn), the half-maximal inhibitory concentration (IC50) is 770 nM. The IC50 values of the last two molecules are within 1.5-fold of each other.
`O=C(Cc1ccsc1)NCC(c1ccccc1Cl)c1c[nH]c2ccccc12` (stereo not drawn) displayed an IC50 of 950 nM.
In the case of `Cc1c(N=O)cc(C(C)(C)C)c(O)c1C(=O)Nc1ccc([N+](=O)[O-])cc1Cl` it was 770 nM; in that of `O=S(=O)(/C=C/c1ccccc1)N(Cc1ccc(-c2ccc(CNCCOc3ccccc3)cc2)cc1)CC1CCCCN1` (stereo not drawn), 740 nM.
On to `CCCCCCN1CCC(NCc2cccc(-n3ccnc3)c2)CC1`, for which the IC50 was determined as 250 nM. This IC50 lies about 3-fold lower than the previous one.
Next, `O=C(Nc1cc(C(F)(F)F)ccc1Cl)c1ccc(Cn2cc(Br)cn2)cc1`: 1350 nM; `COc1cccc2cc(C(=O)N[C@@H](CC(C)C)C(=O)N[C@H](/C=N/N(C)C(=O)OC(C)(C)C)CC(=O)OC(C)(C)C)oc12`: 650 nM.
Next, `O=C(/C=C/c1ccc(Cl)c(Cl)c1)NCCCCCN1CCC(CCNC(=O)/C=C/c2ccccc2F)CC1`: 870 nM; `CCCN1CCN(CC(O)CNC(=O)Nc2ccc(Br)cc2)CC1` (stereo not drawn): 60 nM; `CN(C)c1ccc(CN2CCC(CNC(=O)c3cc(-c4cccc(F)c4)cs3)C2)cc1` (stereo not drawn): 1020 nM.
In the case of `Cc1cccc(C(O)CNc2ccnc(Nc3cccc(-c4csc(C)n4)c3)n2)c1` (stereo not drawn) it was 680 nM; in that of `O=C(Nc1cccc(-c2ccc(-c3nc4ccc(C(F)(F)F)cc4[nH]3)cc2)c1)c1ccncc1`, 340 nM.
Molecule `CN1CCC(NCc2cccc(-c3ccc(S(=O)(=O)NCc4ccccc4)c(F)c3)c2)CC1` displayed an IC50 of 330 nM.
Next, `Cc1cc(-c2cccc(CNCc3ccc(F)cc3)c2)ccc1S(=O)(=O)NCCN1CCCC1`: 730 nM.
`COc1ccccc1C1CCN(C2CCC(NC(=O)/C=C/c3cccc(C(F)(F)F)c3)CC2)CC1` (stereo not drawn) yielded a half-inhibitory concentration (IC50) of 810 nM. This IC50 and that of the molecule before are within 1.5-fold of each other.
In the case of `O=C(Nc1cccc(F)c1)NC1CCN(c2ccnc3cc(Cl)ccc23)C1` (stereo not drawn) it was 190 nM; in that of `COc1cc(C(=O)NCCCN2CCN(c3cccc(Cl)c3)CC2)ccc1-c1nc2cc(Cl)c(F)cc2[nH]1`, 1020 nM; in that of `COCCNCc1cccc(-c2ccc3c(Nc4ccc(Oc5ccccc5)cc4)ccnc3c2)c1`, 520 nM.
In the case of `O=C(c1ccc(-c2ccc(-c3nc4ccc(F)cc4[nH]3)cc2)cc1)N1CCCCC1CN1CCC(O)C1` (stereo not drawn) it was 370 nM; in that of `CC(C)c1ccc(CN2CCC(CNC(=O)c3cc(-c4cccc(C(F)(F)F)c4)cs3)C2)cc1` (stereo not drawn), 910 nM; in that of `COc1cccc(CN2CCC(CCOC(c3ccccc3)c3ccccc3)CC2)c1O`, 730 nM.
Next, `COc1ccc(NC(=O)Nc2ccc(-c3cccc(-c4nc5ccccc5[nH]4)c3)cc2)cc1`: 760 nM; `CN1C[C@@H](c2ccccc2)c2cc(O)c(CN3CCCCC3)cc2C[C@H]1Cc1ccccc1`: 180 nM.
`COc1ccc2c(NN=Cc3cccc(F)c3)cc(C)nc2c1` came in with an IC50 of 780 nM.
In the case of `NC(N)=NN=CC(=O)Nc1cccc(C(F)(F)F)c1`, the IC50 amounted to 1000 nM.
Next, `Nc1nccc2ccc(-c3ccnc(NCc4cccnc4)n3)cc12`: 460 nM; `CSc1nc2nc(C)c(Cc3cccc(F)c3)c(C)n2n1`: 900 nM.
For `CN1CCC(C(=O)N(Cc2ccc(-c3ccc(CNCCc4ccc(S(C)(=O)=O)cc4)cn3)cc2)C2CCN(Cc3ccccc3)CC2)CC1`, the IC50 was 670 nM.
`CN(C)C(=NCCCCCCN=C(/N=C(/N)Nc1ccc(Cl)cc1)N(C)C)/N=C(/N)Nc1ccc(Cl)cc1` registered a half-inhibitory concentration (IC50) of 530 nM.
In the case of `Cc1cccnc1CNc1nccc2c(C)c(C)[nH]c12` it was 850 nM; in that of `CC(=O)Nc1cccc(CNc2cc(C)nc(Nc3ccc(C)cc3)n2)c1`, 1140 nM.
In the case of `COC(=O)c1sc2ccccc2c1NC(=O)c1ccc(C)c(C)c1` it was 1070 nM; in that of `CC(=O)N(Cc1ccc(-c2ccc(CNCCc3ccccc3)cc2)cc1)C1CCN(Cc2ccccc2)CC1`, 940 nM; in that of `N#Cc1ccc(N(CCOC(=O)c2ccccc2)Cc2ccccc2C(F)(F)F)cc1C(F)(F)F`, 920 nM.
Take `CN(C)CCCOc1ccc(-c2nc(-c3ccc4c(c3)CCC4=NO)c(-c3ccncc3)[nH]2)cc1`: the IC50 worked out at 830 nM.

Source of the values: PubChem BioAssay AID2305 (GlaxoSmithKline (GSK), 2010).
